“And” between values parts separate entries of the source, which are not always exact repeats. Identical values can stand only once.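 Test compounds were applied to cells in 96-well plates for 48 hours at 5 doses. Abbreviation: GI50, concentration required for 50% inhibition of growth. TGI marks complete inhibition of growth.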
Key:
Experiment in all cases: growth of human tumour cells (NCI), 48 h
CAKI-1 renal = system: CAKI-1 renal
HCT-116 colon = system: HCT-116 colon
OVCAR-3 ovarian = system: OVCAR-3 ovarian
OVCAR-5 ovarian = system: OVCAR-5 ovarian
RXF 393 renal = system: RXF 393 renal
SK-MEL-5 melanoma = system: SK-MEL-5 melanoma
SR leukemia = system: SR leukemia
T-47D breast = system: T-47D breast
TK-10 renal = system: TK-10 renal
UACC-257 melanoma = system: UACC-257 melanoma

Compound	GI50 (CAKI-1 renal)	TGI (CAKI-1 renal)	GI50 (HCT-116 colon)	TGI (HCT-116 colon)	GI50 (OVCAR-3 ovarian)	TGI (OVCAR-3 ovarian)	GI50 (OVCAR-5 ovarian)	TGI (OVCAR-5 ovarian)	GI50 (RXF 393 renal)	TGI (RXF 393 renal)	GI50 (SK-MEL-5 melanoma)	TGI (SK-MEL-5 melanoma)	GI50 (SR leukemia)	TGI (SR leukemia)	GI50 (T-47D breast)	TGI (T-47D breast)	GI50 (TK-10 renal) [µM]	TGI (TK-10 renal)	GI50 (UACC-257 melanoma)	TGI (UACC-257 melanoma)
Nc1nccc2c1ncn2C1OC(CO)C(O)C1O (configuration not stated)	> 100 µM	> 100 µM	39.2 µM	> 100 µM	> 100 µM	> 100 µM	> 100 µM	> 100 µM	48.5 µM	> 100 µM	> 100 µM	> 100 µM	41.6 µM	> 100 µM	> 100 µM	> 100 µM	> 100	> 100 µM	> 100 µM	> 100 µM
OCC(CCc1c[nH]c2ccccc12)c1c[nH]c2ccccc12 (configuration not stated)	–	77.4 µM	–	29.2 µM	–	> 100 µM	–	33.2 µM	–	30.8 µM	–	30.4 µM	–	41.5 µM	–	35.6 µM	–	37.8 µM	–	24.7 µM
NS(=O)(=O)c1ccc(-n2ncc3c(Nc4ccccc4)ncnc32)cc1	23.7 µM	> 100 µM	27.4 µM	> 100 µM	38.2 µM	> 100 µM	34.9 µM	> 100 µM	29.6 µM	> 100 µM	24.4 µM	> 100 µM	29.6 µM	> 100 µM	24.2 µM	> 100 µM	19.1	> 100 µM	39.4 µM	> 100 µM
O=C(N/N=C/c1ccc(Cl)cc1Cl)c1ccc2nc(-c3ccc(Cl)cc3)[nH]c2c1	1.7 µM	3.29 µM	1.45 µM	3.51 µM	1.84 µM	3.39 µM	1.85 µM	3.97 µM	1.61 µM	3.27 µM	1.81 µM	3.39 µM	1.01 µM	3.95 µM	1.79 µM	3.83 µM	2.06	4.3 µM	2.14 µM	4.72 µM
C[C@@H](COCCC(=O)N1CCN(c2ncc(C(F)(F)F)cn2)CC1)Nc1cn[nH]c(=O)c1C(F)(F)F	14.1 µM	> 100 µM	40.3 µM	> 100 µM	97.5 µM	> 100 µM	> 100 µM	> 100 µM	32.8 µM	> 100 µM	42.3 µM	> 100 µM	4.04 µM	> 100 µM	33.1 µM	> 100 µM	> 100	> 100 µM	> 94.4 µM	> 100 µM
O=C1c2ccccc2-c2c1c1ccc([N+](=O)[O-])cc1c(=O)n2CCCNCCO	0.126 µM	1.81 µM	0.0612 µM	0.441 µM	1.14 µM	2.78 µM	0.52 µM	1.92 µM	1.87 µM	3.88 µM	0.0875 µM	0.349 µM	0.0355 µM	1.78 µM	0.042 µM	1.71 µM	1.37	4.1 µM	3.37 µM	9.39 µM
Cc1ccc2nc(-c3ccc(N)c4ccccc34)[nH]c2c1	0.405 µM	5.62 µM	0.04 µM	4.57 µM	0.748 µM	1.85 µM	0.326 µM	> 73.3 µM	0.265 µM	14.7 µM	–	1.73 µM	0.325 µM	2.09 µM	9.1 µM	> 100 µM	0.878	59.6 µM	9.5 µM	34.5 µM
CCCCCCCCCCCCCCCCCCOc1ccccc1CC(=O)NCC[N+](C)(C)C	4.39 µM	36.7 µM	7.58 µM	> 100 µM	3.55 µM	50.5 µM	2.68 µM	12.8 µM	–	–	6.59 µM	45.8 µM	2.71 µM	> 100 µM	7.6 µM	58.9 µM	2.27	6.48 µM	23.6 µM	51.6 µM
Cc1nc2c(N3CCCC3)nc(N3CCNCC3)nc2nc1NCc1ccccc1	4.82 µM	10.6 µM and 14 µM	3.96 µM	13.4 µM and 11.3 µM	3.28 µM	9.27 µM and 10.7 µM	6.11 µM	11.6 µM and 26.1 µM	4.81 µM	11 µM and 2.66 µM	4.94 µM	9.98 µM and 3.06 µM	1.53 µM	20 µM and > 20.8 µM	3.23 µM	13.8 µM and 4.96 µM	–	11.8 µM and 17.6 µM	7.15 µM	12.9 µM and 3.64 µM
CCC1(NC(=O)c2cc(F)c(F)c(F)c2F)C(=O)NC(=O)N(C(C)C)C1=O (configuration not stated)	29.8 µM	> 100 µM	22.5 µM	51.5 µM	23.9 µM	53.1 µM	> 100 µM	> 100 µM	25.3 µM	59.1 µM	16.8 µM	33 µM	2.98 µM	9.65 µM	> 100 µM	> 100 µM	> 100	> 100 µM	32.1 µM	> 100 µM
N#Cc1nc2c(S(=O)(=O)c3ccccc3)c(N)n(Cc3ccc(Cl)cc3)c2nc1C#N	26.7 µM	> 50 µM	17.9 µM	> 50 µM	12 µM	> 50 µM	13 µM	> 50 µM	2.45 µM	13.9 µM	11.5 µM	> 50 µM	9.72 µM	> 50 µM	15.5 µM	46.4 µM	12.2	26.5 µM	33.1 µM	> 50 µM
Cc1cc(N(CCCNc2ccnc3cc(Cl)ccc23)Cc2ccc3c(c2)OCO3)nc(N2CCCCC2)n1	–	–	1.35 µM	3.28 µM	1.63 µM	3.19 µM	2.44 µM	7.04 µM	1.52 µM	3.12 µM	1.75 µM	3.14 µM	1.41 µM	4.14 µM	1.99 µM	4.82 µM	1.91	4.01 µM	2.2 µM	4.22 µM
COc1cccc(N=N/C(=N\NC(=O)c2cc(Br)ccc2O)c2ccc(N(CCC#N)CCC#N)cc2OC)c1	88.6 µg/mL	> 150 µg/mL	46.4 µg/mL	> 150 µg/mL	59 µg/mL	> 150 µg/mL	79.2 µg/mL	> 150 µg/mL	70.4 µg/mL	> 150 µg/mL	35.1 µg/mL	97.1 µg/mL	71.4 µg/mL	> 150 µg/mL	64 µg/mL	> 150 µg/mL	–	–	87.8 µg/mL	> 150 µg/mL

Reference: PubChem BioAssay (NCI)
